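Growth conditions: 96-well plates. Treatment: test compound, 48 hours, 5 concentrations. Analysis: linear interpolation between bracketing concentrations; unreached endpoints set to highest concentration. TGI: concentration producing complete growth inhibition.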
Assays:
Experiment in all cases: NCI tumour cell line growth inhibition, 48 h
[1] = system: 786-0 renal
[2] = system: A498 renal
[3] = system: A549 NSCLC
[4] = system: ACHN renal
[5] = system: CAKI-1 renal
[6] = system: CCRF-CEM leukemia
[7] = system: COLO 205 colon
[8] = system: DLD-1 colon
[9] = system: DMS 114 small cell lung
[10] = system: DMS 273 small cell lung
[11] = system: EKVX NSCLC
[12] = system: HCC-2998 colon
[13] = system: HCT-116 colon
[14] = system: HCT-15 colon
[15] = system: HOP-18 NSCLC
[16] = system: HOP-62 NSCLC
[17] = system: HT29 colon
[18] = system: IGROV1 ovarian
[19] = system: K-562 leukemia
[20] = system: KM12 colon
[21] = system: KM20L2 colon
[22] = system: LOX IMVI melanoma
[23] = system: LXFL 529 NSCLC
[24] = system: M14 melanoma
[25] = system: M19-MEL melanoma
[26] = system: MALME-3M melanoma
[27] = system: MOLT-4 leukemia
[28] = system: NCI-H460 lung
[29] = system: OVCAR-3 ovarian
[30] = system: OVCAR-4 ovarian
[31] = system: OVCAR-5 ovarian
[32] = system: OVCAR-8 ovarian
[33] = system: RPMI-8226 leukemia
[34] = system: SF-268 CNS
[35] = system: SF-295 CNS
[36] = system: SF-539 CNS
[37] = system: SK-MEL-2 melanoma
[38] = system: SK-MEL-28 melanoma
[39] = system: SK-MEL-5 melanoma
[40] = system: SK-OV-3 ovarian
[41] = system: SN12C renal
[42] = system: SNB-19 CNS
[43] = system: SNB-75 CNS
[44] = system: SNB-78 CNS
[45] = system: SW-620 colon
[46] = system: TK-10 renal
[47] = system: U251 CNS
[48] = system: UACC-257 melanoma
[49] = system: UACC-62 melanoma
[50] = system: UO-31 renal
[51] = system: XF 498 CNS
[52] = system: HL-60(TB) leukemia
[53] = system: HOP-92 NSCLC
[54] = system: NCI-H23 lung
[55] = system: NCI-H522 lung
[56] = system: RXF 393 renal
[57] = system: RXF-631 renal
[58] = system: MCF7 breast
[59] = system: NCI-H226 lung
[60] = system: NCI/ADR-RES ovarian
[61] = system: P388 leukemia
[62] = system: P388/ADR leukemia
[63] = system: SN12K1 renal
[64] = system: SR leukemia

Structure (SMILES): C[C@H](C(=O)O)C(=O)NC(=O)N(Cc1ccccc1)N=O
- TGI [1]: > 100 µM
- TGI [2]: > 100 µM
- TGI [3]: > 100 µM
- TGI [4]: > 100 µM
- TGI [5]: > 100 µM
- TGI [6]: > 100 µM
- TGI [7]: > 100 µM
- TGI [8]: > 100 µM
- TGI [9]: > 100 µM
- TGI [10]: > 100 µM
- TGI [11]: > 100 µM
- TGI [12]: > 100 µM
- TGI [13]: > 100 µM
- TGI [14]: > 100 µM
- TGI [15]: 0.0783 µM
- TGI [16]: > 100 µM
- TGI [17]: > 100 µM
- TGI [18]: > 100 µM
- TGI [19]: > 100 µM
- TGI [20]: > 100 µM
- TGI [21]: > 100 µM
- TGI [22]: > 100 µM
- TGI [23]: > 100 µM
- TGI [24]: > 100 µM
- TGI [25]: > 100 µM
- TGI [26]: > 100 µM
- TGI [27]: > 100 µM
- TGI [28]: > 100 µM
- TGI [29]: > 100 µM
- TGI [30]: > 100 µM
- TGI [31]: > 100 µM
- TGI [32]: > 100 µM
- TGI [33]: > 100 µM
- TGI [34]: > 100 µM
- TGI [35]: > 100 µM
- TGI [36]: > 100 µM
- TGI [37]: > 100 µM
- TGI [38]: > 100 µM
- TGI [39]: > 100 µM
- TGI [40]: > 100 µM
- TGI [41]: > 100 µM
- TGI [42]: > 100 µM
- TGI [43]: > 100 µM
- TGI [44]: > 100 µM
- TGI [45]: > 100 µM
- TGI [46]: > 100 µM
- TGI [47]: > 100 µM
- TGI [48]: > 100 µM
- TGI [49]: > 100 µM
- TGI [50]: > 100 µM
- TGI [51]: > 100 µM

Structure (SMILES): Cc1nc2ccccc2c(=O)n1/N=C(\N=Nc1ccccc1Cl)c1ccccc1Cl
- TGI [1]: > 100 µM
- TGI [2]: > 100 µM
- TGI [3]: > 100 µM
- TGI [4]: > 100 µM
- TGI [5]: 63.4 µM
- TGI [6]: > 100 µM
- TGI [7]: > 100 µM
- TGI [8]: > 100 µM
- TGI [9]: > 100 µM
- TGI [10]: > 100 µM
- TGI [11]: > 100 µM
- TGI [13]: > 100 µM
- TGI [14]: > 100 µM
- TGI [52]: > 100 µM
- TGI [15]: > 100 µM
- TGI [16]: > 100 µM
- TGI [53]: 43.7 µM
- TGI [17]: > 100 µM
- TGI [18]: > 100 µM
- TGI [19]: > 100 µM
- TGI [21]: > 100 µM
- TGI [22]: > 100 µM
- TGI [23]: > 100 µM
- TGI [24]: > 100 µM
- TGI [25]: > 100 µM
- TGI [27]: > 100 µM
- TGI [54]: > 100 µM
- TGI [28]: > 100 µM
- TGI [55]: 98.4 µM
- TGI [32]: > 100 µM
- TGI [33]: > 100 µM
- TGI [56]: 40.5 µM
- TGI [57]: > 100 µM
- TGI [34]: > 100 µM
- TGI [36]: > 100 µM
- TGI [38]: > 100 µM
- TGI [39]: > 100 µM
- TGI [40]: 64.4 µM
- TGI [41]: > 100 µM
- TGI [45]: > 100 µM
- TGI [46]: > 100 µM
- TGI [47]: > 100 µM
- TGI [49]: > 100 µM
- TGI [50]: > 100 µM
- TGI [51]: 26.8 µM

Structure (SMILES): C=CCNC(=O)C(C)C1CCC2(C)C=CC(=O)C(C)=C2C1O (centres undefined)
- TGI [2]: > 100 µM
- TGI [3]: > 100 µM
- TGI [5]: > 100 µM
- TGI [6]: > 100 µM
- TGI [7]: > 100 µM
- TGI [8]: > 100 µM
- TGI [9]: > 100 µM
- TGI [10]: > 100 µM
- TGI [11]: > 100 µM
- TGI [12]: > 100 µM
- TGI [13]: > 100 µM
- TGI [14]: > 100 µM
- TGI [52]: > 100 µM
- TGI [15]: > 100 µM
- TGI [16]: > 100 µM
- TGI [53]: > 100 µM
- TGI [17]: > 100 µM
- TGI [18]: > 100 µM
- TGI [19]: > 100 µM
- TGI [20]: > 100 µM
- TGI [21]: > 100 µM
- TGI [22]: > 100 µM
- TGI [25]: > 100 µM
- TGI [58]: > 100 µM
- TGI [27]: > 100 µM
- TGI [59]: > 100 µM
- TGI [54]: > 100 µM
- TGI [28]: > 100 µM
- TGI [55]: > 100 µM
- TGI [60]: > 100 µM
- TGI [29]: > 100 µM
- TGI [30]: > 100 µM
- TGI [31]: > 100 µM
- TGI [32]: > 100 µM
- TGI [61]: > 100 µM
- TGI [62]: > 100 µM
- TGI [33]: > 100 µM
- TGI [56]: > 100 µM
- TGI [34]: > 100 µM
- TGI [35]: > 100 µM
- TGI [36]: > 100 µM
- TGI [37]: > 100 µM
- TGI [38]: > 100 µM
- TGI [39]: > 100 µM
- TGI [40]: > 100 µM
- TGI [41]: > 100 µM
- TGI [63]: > 100 µM
- TGI [42]: > 100 µM
- TGI [43]: > 100 µM
- TGI [44]: > 89.1 µM
- TGI [45]: > 100 µM
- TGI [47]: > 100 µM
- TGI [48]: > 100 µM
- TGI [49]: > 100 µM
- TGI [50]: > 100 µM
- TGI [51]: > 100 µM

Structure (SMILES): O=C(c1ccccc1)[C@H]1Nc2ccc(Cl)cc2[C@H]2CCC[C@@H]12
- TGI [1]: > 100 µM
- TGI [3]: > 100 µM
- TGI [4]: 57.9 µM
- TGI [5]: > 100 µM
- TGI [7]: 91.7 µM
- TGI [8]: > 100 µM
- TGI [9]: > 100 µM
- TGI [10]: > 100 µM
- TGI [12]: > 100 µM
- TGI [13]: 41.5 µM
- TGI [14]: 98.3 µM
- TGI [15]: 59.6 µM
- TGI [16]: > 100 µM
- TGI [17]: 62.2 µM
- TGI [18]: > 100 µM
- TGI [19]: 64.5 µM
- TGI [20]: > 100 µM
- TGI [21]: > 100 µM
- TGI [22]: 19.9 µM
- TGI [23]: 64.9 µM
- TGI [24]: 29.2 µM
- TGI [25]: > 100 µM
- TGI [26]: 51.3 µM
- TGI [27]: 86.8 µM
- TGI [59]: 63.3 µM
- TGI [54]: 78 µM
- TGI [28]: 88 µM
- TGI [55]: 59.9 µM
- TGI [29]: 68.6 µM
- TGI [30]: 75.9 µM
- TGI [31]: > 100 µM
- TGI [32]: > 100 µM
- TGI [33]: 57.1 µM
- TGI [56]: 82.6 µM
- TGI [57]: > 100 µM
- TGI [34]: > 100 µM
- TGI [35]: > 100 µM
- TGI [36]: > 100 µM
- TGI [37]: 49.5 µM
- TGI [38]: 92.6 µM
- TGI [39]: 23 µM
- TGI [41]: 92.5 µM
- TGI [42]: > 100 µM
- TGI [43]: > 100 µM
- TGI [44]: > 100 µM
- TGI [64]: > 100 µM
- TGI [45]: > 100 µM
- TGI [46]: > 100 µM
- TGI [47]: > 100 µM
- TGI [49]: > 100 µM
- TGI [50]: > 100 µM
- TGI [51]: 54.2 µM
